The source made the active and inactive calls. No cut-off for these calls is given here.
Key:
[1] = Toxicity in BALB/C nude mouse xenografted with human T24 cells assessed as effect on heart at 30 mg/kg, IG administered every 2 days for 14 days by H and E staining based assay; assay type: organism-based, T-24; conditions: in vivo, po, 336 h, time 14 day
T-24 [2] = test: Antitumor activity against human T24 cells xenografted in BALB/c nude mouse assessed as reduction in tumor volume at 30 mg/kg, IG administered every 2 days for 14 days; assay type: functional; conditions: time 14 day
T-24 [3] = test: Antitumor activity against human T24 cells xenografted in BALB/c nude mouse assessed as tumor growth inhibition at 30 mg/kg, IG administered every 2 days for 14 days; assay type: functional; design: scale not given: the % may be the effect or the level left; conditions: time 14 day
T-24 [4] = test: Cytotoxicity against human T24 cells assessed as decrease in cell viability at 10 uM by MTT assay; assay type: functional, cell-based; conditions: TDE = time-dependent effect
T-24 [5] = test: Antiproliferative activity against human T24 cells assessed as cell growth inhibition measured after 48 hrs by MTT assay; assay type: functional, cell-based; conditions: T-24, 48 h
WI-38 [6] = test: Antiproliferative activity against human WI-38 cells assessed as cell growth inhibition measured after 48 hrs by MTT assay; assay type: functional, cell-based; conditions: WI-38, 48 h
[7] = Toxicity in BALB/C nude mouse xenografted with human T24 cells assessed as effect on lung at 30 mg/kg, IG administered every 2 days for 14 days by H and E staining based assay; assay type: organism-based, T-24; conditions: in vivo, po, 336 h, time 14 day
T-24 [8] = test: Inhibition of colony formation in human T24 cells 0.2 to 10 uM incubated for 24 hrs and measured for 10 days; assay type: functional, cell-based; conditions: dose 0.2-10 µM
[9] = Toxicity in BALB/C nude mouse xenografted with human T24 cells assessed as effect on liver at 30 mg/kg, IG administered every 2 days for 14 days by H and E staining based assay; assay type: organism-based, T-24; conditions: in vivo, po, 336 h, time 14 day
T-24 [10] = test: Antitumor activity against human T24 cells xenografted in BALB/c nude mouse assessed as inhibition of tumor metastasis in liver at 30 mg/kg, IG administered every 2 days for 14 days; assay type: functional, organism-based; conditions: time 2.0 day
WI-38 [11] = test: Cytotoxicity against human WI-38 cells by MTT assay; assay type: toxicity, cell-based
MGC-803 = test: Antiproliferative activity against human MGC-803 cells assessed as cell growth inhibition measured after 48 hrs by MTT assay; assay type: functional, cell-based; conditions: MGC-803, 48 h
T-24 [12] = test: Induction of mitochondrial Ca2+ production in human T24 cells assessed as increase in intracellular Ca2+ concentration at 10 uM by Rhod2-AM staining based fluorescence microscopic method; assay type: functional, cell-based
SK-OV-3 = test: Antiproliferative activity against human SK-OV-3 cells assessed as cell growth inhibition measured after 48 hrs by MTT assay; assay type: functional, cell-based; conditions: SK-OV-3, 48 h
HepG2 = test: Antiproliferative activity against human HepG2 cells assessed as cell growth inhibition measured after 48 hrs by MTT assay; assay type: functional, cell-based; conditions: HepG2, 48 h
T-24 [13] = test: Cytotoxicity against human T24 cells assessed as decrease in cell viability measured after 48 hrs by MTT assay; assay type: toxicity, cell-based; conditions: t-24, 48 h, 20 µM, DDE = dose-dependent effect
T-24 [14] = test: Induction of ROS generation in human T24 cells at 10 uM by fluorescence microscopy; assay type: functional, cell-based
[15] = Toxicity in BALB/C nude mouse xenografted with human T24 cells assessed as effect on kidney at 30 mg/kg, IG administered every 2 days for 14 days by H and E staining based assay; assay type: organism-based, T-24; conditions: in vivo, po, 336 h, time 14 day
[16] = Toxicity in BALB/C nude mouse xenografted with human T24 cells assessed as decrease in body weight at 30 mg/kg, IG administered every 2 days for 14 days; assay type: organism-based, T-24; conditions: in vivo, po, 336 h, time 14 day
WI-38 [17] = test: Induction of apoptosis in human WI-38 cells at IC50; assay type: toxicity, cell-based
T-24 [18] = test: Induction of mitochondrial mediated apoptosis in human T24 cells assessed as upregulation of cytochrome c expression at 10 to 15 uM incubated for 24 hrs by Western blotting analysis; assay type: functional, cell-based; conditions: dose 10-15 µM
T-24 [19] = test: Induction of apoptosis in human T24 cells assessed as viable cells at 2 uM incubated for 24 hrs by Annexin-V/PI staining based flow cytometry analysis (reference value: 94.3 %); assay type: functional; conditions: read-out: Activity
T-24 [20] = test: Induction of cell cycle arrest in human T24 cells assessed as accumulation of cells at S phase at 1 uM incubated for 24 hrs by propidium iodide/RNase A staining based flow cytometry analysis (reference value: 42.47 %); assay type: functional
[21] = Toxicity in human WI-38 cells assessed as wound closure at 0.25 uM measured after 24 hrs by fluorescence microscopy based wound healing assay; assay type: cell-based; conditions: wi-38, 24 h
T-24 [22] = test: Induction of cell cycle arrest in human T24 cells assessed as accumulation of cells at G2/M phase at 0.5 uM incubated for 24 hrs by propidium iodide/RNase A staining based flow cytometry analysis (reference value: 5.82 %); assay type: functional
T-24 [23] = test: Induction of DNA damage in human T24 cells assessed as increase in gamma H2AX expression at 0.5 to 1 uM incubated for 24 hrs by Western blot analysis; assay type: functional, cell-based; conditions: dose 0.5-1 µM
T-24 [24] = test: Induction of mitochondrial mediated apoptosis in human T24 cells assessed as increase in Bak protein expression at 0.5 to 1 uM incubated for 24 hrs by Western blotting analysis; assay type: functional, cell-based; conditions: dose 0.5-1 µM
T-24 [25] = test: Induction of apoptosis in human T24 cells assessed as early apoptotic cells at 2 uM incubated for 24 hrs by Annexin-V/PI staining based flow cytometry analysis (reference value: 3.27 %); assay type: functional
T-24 [26] = test: Induction of apoptosis in human T24 cells assessed as late apoptotic cells at 2 uM incubated for 24 hrs by Annexin-V/PI staining based flow cytometry analysis (reference value: 0.543 %); assay type: functional
T-24 [27] = test: Induction of mitochondrial membrane potential dysfunction in human T24 cells assessed as change in morphology at 0.5 to 1 uM by Mitotracker green dye based fluorescence microscopy; assay type: functional, cell-based; conditions: dose 0.5-1 µM
T-24 [28] = test: Induction of cell cycle arrest in human T24 cells assessed as accumulation of cells at S phase at 0.5 uM incubated for 24 hrs by propidium iodide/RNase A staining based flow cytometry analysis (reference value: 42.47 %); assay type: functional
T-24 [29] = test: Induction of cell cycle arrest in human T24 cells assessed as accumulation of cells at G1 phase at 0.5 uM incubated for 24 hrs by propidium iodide/RNase A staining based flow cytometry analysis (reference value: 51.71 %); assay type: functional
T-24 [30] = test: Induction of apoptosis in human T24 cells assessed as necrotic cells at 2 uM incubated for 24 hrs by Annexin-V/PI staining based flow cytometry analysis (reference value: 1.92 %); assay type: functional
T-24 [31] = test: Inhibition of colony formation in human T24 cells at 0.08 uM incubated for 24 hrs and measured for 10 days; assay type: functional, cell-based
T-24 [32] = test: Induction of mitochondrial ROS generation in human T24 cells at 2 uM measured after 24 hrs by DCFH-DA staining based confocal microscopy method; assay type: functional, cell-based
T-24 [33] = test: Induction of mitochondrial mediated apoptosis in human T24 cells assessed as increase in Bak protein expression at 2 to 4 uM incubated for 24 hrs by Western blotting analysis; assay type: functional, cell-based; conditions: dose 2-4 µM
T-24 [34] = test: Inhibition of colony formation in human T24 cells at 0.16 uM incubated for 24 hrs and measured for 10 days; assay type: functional, cell-based
T-24 [35] = test: Induction of cell cycle arrest in human T24 cells assessed as accumulation of cells at S phase at 2 uM incubated for 24 hrs by propidium iodide/RNase A staining based flow cytometry analysis (reference value: 42.47 %); assay type: functional

| IC50 (MGC-803) [nM] | IC50 (SK-OV-3) [µM] | IC50 (HepG2) [nM] | SMILES | Activity [1] | Activity (T-24 [2]) [mm3] | Activity (T-24 [3]) [%] | IC50 (T-24 [5]) [nM] | IC50 (WI-38 [6]) [µM] | Activity [7] | Activity [9] | Activity (T-24 [10]) | Activity (WI-38 [11]) | Activity (T-24 [13]) | Activity [15] | Activity [16] | Activity (WI-38 [17]) | viability at 2 µM (T-24 [19]) [%] | Activity (T-24 [25]) [%] | Activity (T-24 [26]) [%] | Activity (T-24 [30]) [%] | further results |
| --- | --- | --- | --- | --- | --- | --- | --- | --- | --- | --- | --- | --- | --- | --- | --- | --- | --- | --- | --- | --- | --- |
| 12600 | 37 | 12300 | O=C1c2ccccc2-c2cccc3ccnc1c23 | Non-Toxic | 722.033 | 40.8 | 9500 | 20.2 | Non-Toxic | Non-Toxic | Active | Non-Toxic | Dde | Non-Toxic | Non-Toxic | Non-Toxic | – | – | – | – | Activity (T-24 [4]): Tde; inhibition (T-24 [8]): Active; Activity (T-24 [12]): Active; Activity (T-24 [14]): Active; Activity (T-24 [18]): Active |
| 1100 | 8.9 | 1300 | O=C1c2ccccc2-c2ccc([N+](=O)[O-])c3ccnc1c23 | Non-Toxic | 605.28 | 49.5 | 500 | 14.8 | Non-Toxic | Non-Toxic | Active | Non-Toxic | Dde | Non-Toxic | Non-Toxic | Non-Toxic | 32.7 | 57.7 | 8.68 | 0.914 | Activity (T-24 [20]): 35.21%; Activity [21]: Non-Toxic; Activity (T-24 [22]): 52.05%; Activity (T-24 [23]): Active; Activity (T-24 [24]): Active; Activity (T-24 [27]): Active; Activity (T-24 [28]): 47.37%; Activity (T-24 [29]): 0.58% |
| 2300 | 16 | 2200 | O=C1c2cc([N+](=O)[O-])ccc2-c2ccc([N+](=O)[O-])c3ccnc1c23 | Non-Toxic | 846.52 | 30.7 | 2000 | 20.4 | Non-Toxic | Non-Toxic | Active | Non-Toxic | Dde | Non-Toxic | Non-Toxic | Non-Toxic | 65.8 | 27.4 | 4.79 | 1.97 | inhibition (T-24 [31]): Active; Activity (T-24 [32]): Active; Activity (T-24 [33]): Active; inhibition (T-24 [34]): Active; Activity (T-24 [35]): 66.71% |
